US11655242B2, “Glucagon-like peptide1 receptor agonists” (Eli Lilly and Company, priority 2019, dated 2023)
Read-outs that look alike come from different tables or passages of the source.

Key:
[1] = test system: mice expressing the human GLP-1R; assay: In Vivo Intraperitoneal Glucose Tolerance Test in Human GLP-1R Knock-in Mice; details: Mus musculus; read-out: Blood glucose lowering ED50
Description: In Vivo Intraperitoneal Glucose Tolerance Test in Human GLP-1R Knock-in Mice
The potency of the exemplified compounds to lower the concentration of blood glucose in vivo is determined using mice expressing the human GLP-1R (NCBI accession number NP_002053) from the mouse Glp-1r genetic locus (Jun, L. S., et al., PLoS One. 2014 9:e93746). Overnight fasted mice are orally administered the test compound solubilized in 10% Kolliphor® (HS15) in Polyetheylene Glycol 400 (PEG400). One hour post-dose, the animals are administered glucose by intraperitoneal injection (2 g/kg), and blood glucose levels are measured intermittingly over the next two hours using glucometers. A dose range of the test compound is delivered, and area under the curve calculations for each dose group are determined and fit to a four-parameter logistic model for calculating in vivo potency as an ED50 with a 95% confidence interval.

human GLP-1R = human GLP-1R (Homo sapiens (Human), UniProt P43220); assay: Human GLP-1 Receptor HEK293 Cell cAMP Assay; details: for EC50: EC50 (nM) ± SEM (n), intracellular cAMP response, relative EC50; for Emax: percent of maximal response with human GLP-1(7-36)NH2
Sequence of human GLP-1R (P43220 24-463): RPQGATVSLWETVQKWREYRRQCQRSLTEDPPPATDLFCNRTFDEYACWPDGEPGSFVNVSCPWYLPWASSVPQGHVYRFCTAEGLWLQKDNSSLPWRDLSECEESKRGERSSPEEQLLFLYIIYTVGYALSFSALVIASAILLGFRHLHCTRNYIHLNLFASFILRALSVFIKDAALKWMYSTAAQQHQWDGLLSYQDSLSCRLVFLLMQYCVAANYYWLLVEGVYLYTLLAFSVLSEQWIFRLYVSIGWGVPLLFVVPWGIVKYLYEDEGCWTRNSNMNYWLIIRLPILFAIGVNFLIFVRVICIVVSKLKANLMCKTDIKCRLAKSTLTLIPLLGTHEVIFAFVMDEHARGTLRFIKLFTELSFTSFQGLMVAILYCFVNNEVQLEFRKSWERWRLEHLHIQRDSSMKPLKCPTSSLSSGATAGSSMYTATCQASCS
Description: After a 30 min incubation at 37° C., the resulting increase in intracellular cAMP is quantitatively determined using the CisBio cAMP Dynamic 2 HTRF Assay Kit (62AM4PEJ). Briefly, cAMP levels within the cell are detected by adding the cAMP-d2 conjugate in cell lysis buffer (10 μL) followed by the antibody anti-cAMP-Eu^3+-Cryptate, also in cell lysis buffer (10 μL). […] The amount of cAMP generated (nM) in each well is converted to a percent of the maximal response observed with human GLP-1(7-36)NH2. A relative EC50 value and percent top (Emax) are derived by non-linear regression analysis using the percent maximal response vs. the concentration of compound added, fitted to a four-parameter logistic equation.

hERG K+ channel = hERG K+ channel (Homo sapiens (Human), UniProt Q12809); assay: Human hERG K+ Channel Affinity Radioligand Binding Assay; details: pH 7.4, probe [3H]dofetilide, 3 nM, read-out: Percent inhibition (%) at 100 μM compound concentration, n = 1
Sequence of hERG K+ channel (Q12809 whole entry): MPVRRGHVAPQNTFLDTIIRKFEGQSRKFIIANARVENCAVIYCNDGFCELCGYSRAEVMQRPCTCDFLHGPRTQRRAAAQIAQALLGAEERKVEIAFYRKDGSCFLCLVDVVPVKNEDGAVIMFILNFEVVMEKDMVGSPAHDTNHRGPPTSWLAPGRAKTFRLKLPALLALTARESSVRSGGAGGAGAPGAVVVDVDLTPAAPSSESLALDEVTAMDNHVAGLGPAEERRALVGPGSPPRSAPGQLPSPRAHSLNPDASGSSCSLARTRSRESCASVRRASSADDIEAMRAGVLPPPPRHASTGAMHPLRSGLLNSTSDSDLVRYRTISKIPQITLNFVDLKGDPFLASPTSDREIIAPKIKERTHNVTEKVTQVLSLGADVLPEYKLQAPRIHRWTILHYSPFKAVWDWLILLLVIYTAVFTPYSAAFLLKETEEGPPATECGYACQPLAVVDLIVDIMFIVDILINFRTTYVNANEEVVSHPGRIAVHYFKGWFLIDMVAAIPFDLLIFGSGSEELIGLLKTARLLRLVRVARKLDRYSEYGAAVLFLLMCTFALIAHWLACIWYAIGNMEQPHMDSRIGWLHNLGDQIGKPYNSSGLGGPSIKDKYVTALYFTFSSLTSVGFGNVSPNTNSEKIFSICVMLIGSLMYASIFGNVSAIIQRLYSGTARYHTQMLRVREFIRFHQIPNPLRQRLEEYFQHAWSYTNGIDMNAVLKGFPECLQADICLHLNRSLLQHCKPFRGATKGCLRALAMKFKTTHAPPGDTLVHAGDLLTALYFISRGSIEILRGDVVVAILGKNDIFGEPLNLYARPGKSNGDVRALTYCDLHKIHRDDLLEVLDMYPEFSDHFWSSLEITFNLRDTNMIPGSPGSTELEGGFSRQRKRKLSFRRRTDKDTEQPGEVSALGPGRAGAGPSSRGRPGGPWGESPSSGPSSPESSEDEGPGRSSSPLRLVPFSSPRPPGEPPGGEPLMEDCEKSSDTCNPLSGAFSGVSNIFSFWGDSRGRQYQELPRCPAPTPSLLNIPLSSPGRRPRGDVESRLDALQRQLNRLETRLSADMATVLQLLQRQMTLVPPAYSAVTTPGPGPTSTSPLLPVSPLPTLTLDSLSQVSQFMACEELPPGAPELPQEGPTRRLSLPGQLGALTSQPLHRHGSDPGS
Description: Human hERG K^+ Channel Affinity Radioligand Binding Assay
The affinity of compounds for the human hERG K^+ channel in transfected HEK-293 cells is evaluated in a radioligand binding assay as described herein. Cell membrane homogenates (about […]) are incubated for 60 min at 22° C. with 3 nM [^3H]dofetilide in the absence or presence of the test compound in a buffer containing 50 mM Tris-HCl (pH 7.4), 10 mM KCl and 1 mM MgCl2. The assay is carried out in a 96-well plate format with a volume of 200 μL, containing a maximum of 1% DMSO from initial solubilization of test compound. Following incubation, the samples are filtered rapidly under vacuum through glass fiber filters (GF/B, Packard) presoaked with 0.3% PEI and rinsed several times with ice-cold 50 mM Tris-HCl, 10 mM KCl and 1 mM MgCl2 using a 96-sample cell harvester (Unifilter, Packard). The filters are dried and then counted for radioactivity in a scintillation counter (Topcount, Packard) using a scintillation cocktail (Microscint 0, Packard).

[2] = Non-Human Primate (NHP) Pharmacokinetics; assay type: in vivo; details: cynomolgus monkey, plasma, IV 0.5 mg/kg, fasted male cynomolgus monkeys; for Vd: steady-state, read-out: Volume of distribution
Description: Non-Human Primate (NHP) Pharmacokinetics:
The test compound is administered to fasted male cynomolgus monkeys intravenously (IV) at 0.5 mg/kg (using a dose volume of 1 mL/kg). Serial blood samples are collected at 0.08, 0.25, 0.5, 1, 2, 4, 8, 12, and 24 hours post dose for IV bolus. After treatment with an EDTA […], plasma is obtained by centrifugation and stored at −70° C. until analysis by LC-MS/MS. Test article concentration is determined in plasma. Noncompartmental analysis is used to calculate plasma clearance and steady-state volume of distribution.

PDE10A1 = PDE10A1 (Homo sapiens (Human), UniProt Q9Y233); assay: Phosphodiesterase 10 (PDE10) Enzyme Activity Assay; assay type: biochemical; details: read-out: IC50 (μM), n = 1, inhibition of PDE10A1; SPA, [3H]-cGMP substrate, maximal compound concentration 10 μM
Sequence of PDE10A1 (Q9Y233 other isoform, or with tags, fused parts or gaps): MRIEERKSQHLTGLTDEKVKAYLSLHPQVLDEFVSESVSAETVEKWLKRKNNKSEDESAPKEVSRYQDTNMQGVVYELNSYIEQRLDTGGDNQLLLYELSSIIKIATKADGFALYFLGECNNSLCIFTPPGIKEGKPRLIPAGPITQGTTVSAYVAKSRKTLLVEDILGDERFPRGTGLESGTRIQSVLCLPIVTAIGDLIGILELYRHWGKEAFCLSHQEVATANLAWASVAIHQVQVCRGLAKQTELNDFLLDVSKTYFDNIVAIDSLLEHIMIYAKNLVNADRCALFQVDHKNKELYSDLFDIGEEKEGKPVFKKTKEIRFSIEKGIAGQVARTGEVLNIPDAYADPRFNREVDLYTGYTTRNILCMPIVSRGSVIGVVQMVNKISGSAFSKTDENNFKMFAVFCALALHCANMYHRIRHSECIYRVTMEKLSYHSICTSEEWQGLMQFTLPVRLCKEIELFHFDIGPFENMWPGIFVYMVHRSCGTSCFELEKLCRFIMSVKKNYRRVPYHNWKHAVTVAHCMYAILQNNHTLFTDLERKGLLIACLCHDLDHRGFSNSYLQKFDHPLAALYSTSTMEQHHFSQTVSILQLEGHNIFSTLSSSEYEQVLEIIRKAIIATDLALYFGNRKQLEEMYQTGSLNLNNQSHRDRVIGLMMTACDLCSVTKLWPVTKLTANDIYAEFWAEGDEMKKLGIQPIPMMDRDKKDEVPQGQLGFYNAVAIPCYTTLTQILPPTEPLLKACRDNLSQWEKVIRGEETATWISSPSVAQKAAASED
Description: Phosphodiesterase 10 (PDE10) Enzyme Activity Assay
To generate phosphodiesterase 10A1 (PDE10A1) protein, a full-length PDE10A1 clone corresponding to GenBank ID AAD32595.1 is cloned into pFastBac1 (Invitrogen). The PDE10A1 protein with a C-terminal FLAG-tag is expressed by baculoviral infection of insect cells and purified using anti-FLAG M2-agarose (Sigma) and size exclusion chromatography on a Superdex 200 column (GE Healthcare) and stored at −80° C. in small aliquots (20 mM Tris-HCl, Ph 7.5, 150 mM NaCl, 10% Glycerol).
PDE10A1 enzyme activities are measured with a yittrium silicate based scintillation proximity assay (SPA) that detects radioactive nucleotide monophosphates but not cyclic monophosphates. The assay buffer is composed of 50 mM Tris-HCl pH 7.5, 8 mM MgCl2, 3.4 mM EDTA, and 0.1% BSA (Sigma). Assays are conducted in 384 well plates (3706, Corning) in a total volume of 50 μl: comprised of 24 μl PDE10A1 enzyme, 1 μl test compound and 25 μl of cyclic nucleotide. Test compounds are diluted in pure DMSO using ten-point concentration response curves with a 3-fold dilution factor and 1 μl is acoustically dispensed into assay plates using the Echo555 (LabCyte). 24 μl PDE10A1 protein is incubated with 1 μl compound for 30 min before the reaction is started by the addition of [8-^3H]-cGMP substrate (6.5 Ci/mmol, Perkin Elmer). Final concentration of components is […], 80 nM (3H-cGMP), and 2% DMSO in assay buffer. Maximal compound concentration in the reaction mixture is 10 μM. Reactions are incubated for 60 min at RT before quenching and the addition of […] SPA beads (RPNQ0150, Perkin Elmer). Bead bound radioactivity (product) is quantified 12 h later with a Microbeta counter (Perkin Elmer). Data is normalized to % inhibition and IC50 values are calculated using the 4 parameter logistic equation as described (Campbell R. M.; Dymshitz, J.; Eastwood, B. J.; et al. “Data Standardization for Results Management.” In: Sittampalam, G. S.; Grossman, A.; Brimacombe, K.; et al.; eds. Assay Guidance Manual. Bethesda (Md.): Eli Lilly & Company and the National Center for Advancing Translational Sciences; 2004.).

[3] = HEK293 cell line with 104 fmol/mg expression density of GLP-1R
[4] = HEK293 cell line with 581 fmol/mg expression density of GLP-1R
[5] = HEK293, read-out: Emax (%) ± SEM (n), HEK293 cell line with 104 fmol/mg expression density of GLP-1R
[6] = HEK293, read-out: Emax (%) ± SEM (n), HEK293 cell line with 581 fmol/mg expression density of GLP-1R

SMILES	ED50 [1] [mg/kg]	EC50 (human GLP-1R; [3]) [nM]	EC50 (human GLP-1R; [4]) [nM]	Emax (human GLP-1R; [5]) [%]	Emax (human GLP-1R; [6]) [%]	inhibition at 60 min, 100 µM (hERG K+ channel) [%]	clearance [2] [mL/min/kg]	Vd [2] [L/kg]	IC50 (PDE10A1) [µM]
Cc1cc(Cc2nc3ccc(C(=O)O)cc3n2C[C@@H]2CCO2)ccc1-c1cccc(OCc2ccc(C#N)cc2F)n1 [Example 1, 2-[[4-[6-[(4-Cyano-2-fluoro-phenyl)methoxy]-2-pyridyl]-3-methyl-phenyl]methyl]-3-[[(2S)-oxetan-2-yl]methyl]benzimidazole-5-carboxylic Acid]	0.09	20 ± 3.25	9.33 ± 1.36	71.4 ± 2.26	99.5 ± 2.53	0	13	1.2	> 10
Cc1cc(Cc2nc3ccc(C(=O)O)cc3n2C[C@@H]2CCO2)c(F)cc1-c1cccc(OCc2ccc(C#N)cc2F)n1 [Example 2, 2-[[4-[6-[(4-Cyano-2-fluoro-phenyl)methoxy]-2-pyridyl]-2-fluoro-5-methyl-phenyl]methyl]-3-[[(2S)-oxetan-2-yl]methyl]benzimidazole-5-carboxylic Acid]	0.07	3.97 ± 0.61	1.14 ± 0.315	79.2 ± 3.2	104 ± 4.35	54	11	1.1	7.43
N#Cc1ccc(COc2cccc(-c3ccc(Cc4nc5ccc(C(=O)O)cc5n4C[C@@H]4CCO4)c(F)c3)n2)c(F)c1 [Example 3, 2-[[4-[6-[(4-Cyano-2-fluoro-phenyl)methoxy]-2-pyridyl]-2-fluoro-phenyl]methyl]-3-[(2S)-oxetan-2-ylmethyl]benzimidazole-5-carboxylic Acid]	0.06	–	–	–	–	37	6	1.1	> 10
N#Cc1ccc(COc2cccc(-c3cc(F)c(Cc4nc5ccc(C(=O)O)cc5n4C[C@@H]4CCO4)c(F)c3)n2)c(F)c1 [Example 4, 2-[[4-[6-[(4-Cyano-2-fluoro-phenyl)methoxy]-2-pyridyl]-2,6-difluoro-phenyl]methyl]-3-[(2S)-oxetan-2-ylmethyl]benzimidazole-5-carboxylic Acid]	–	9.59 ± 2.36	3.99 ± 0.378	78.3 ± 5.1	99.2 ± 4	–	–	–	5.41
Cc1c(-c2cccc(OCc3ccc(C#N)cc3F)n2)ccc(Cc2nc3ccc(C(=O)O)cc3n2C[C@@H]2CCO2)c1F [Example 5, 2-[[4-[6-[(4-Cyano-2-fluoro-phenyl)methoxy]-2-pyridyl]-2-fluoro-3-methyl-phenyl]methyl]-3-[[(2S)-oxetan-2-yl]methyl]benzimidazole-5-carboxylic Acid]	–	23.6 ± 5.43	6.45 ± 0.934	76.7 ± 3.88	105 ± 2.43	–	–	–	–
